# According to US20230255974A1, “USE OF THYROMIMETICS FOR THE TREATMENT OF CANCER” (THE UNIVERSITY OF VERMONT, priority 2020, published 2023):
# “Also recorded” adds a separate entry of the source. Read-outs that look alike come from different tables or passages of the source.
# Tests used:
# OCUT-2 = test: Cell growth with STAT1 activator 2-NP; format: cell-based; conditions: 0-50 μM 2-NP, 24 hours
# Procedure: (§1) Growth Assays. Cell growth was measured either through live cell imaging or by cell counting at discrete points. Live cell imaging was used to assess the growth kinetics of SW-EV and SW-TRβ. To perform live cell imaging, 5000 cells were plated per well in 24 well plates. After 24 hours in phenol red free, charcoal stripped media, media was supplemented with either 10^−8 M T3 or equivolume vehicle (NaOH). Every two hours cells were imaged with a Lionheart automated microscope (BioTek) and quantified with Gen5 software (BioTek). The cells entered the log phase of growth at approximately 48 hours, and the portion of the curve following this point was used to calculate the doubling time of the cells. In order to measure growth manually, 25,000 cells were plated per well in a six well plate. Cells were grown in full thyroid media with the addition of 2-(1,8-Naphthyridin-2-yl)phenol (2-NP) (Abcam) or vehicle (DMSO). Every 24 hours cell counts were assessed by hemocytometer.
# (§2) STAT1 has anti-proliferative activity, raising the question whether it can be exploited pharmacologically to reduce ATC growth. Baseline expression of key genes in the JAK1-STAT1 pathway and TR isoform levels (TRβ and TRα) in 3 additional anaplastic thyroid cancer cell lines are illustrated in FIG. 10C.
# KTC-2 [1] = test: Cell growth with STAT1 activator 2-NP; format: cell-based; conditions: 0-50 μM 2-NP, 24 hours
# Procedure: as §1, §2
# SW1736 = test: Cell growth with STAT1 activator 2-NP; format: cell-based, human; conditions: 0-50 μM 2-NP, 24 hours
# Procedure: as §1, §2
# [2] = tested on: MDA-MB-468 cells (EV, TRβ); test: Relative cell growth by cell counting, triple negative breast cancer cells; format: cell-based; conditions: MDA-MB-468-TRβ, 10 nM GC-1, 8 days
# From the text: MDA-MB-468 cells were transduced with empty vector (EV) (FIGS. 29A, 29C) or thyroid hormone receptor beta (TRβ) (FIGS. 29B, 29D) and maintained in complete media. […] Data are mean+/−SD; * indicates p<0.05 determined by t-test.
# [3] = tested on: SW1736 cells (SW-EV, SW-TRβ); test: Buparlisib with or without GC-1, cell viability/growth, 24 hr; format: cell-based, human
# Procedure: SW1736 cells transduced with lentiviral vector (EV) or lentiviral vector containing TRβ (TRβ) were treated with buparlisib (0 μM, 0.1 μM, 1 μM, or 10 μM) for 24 hours.
# KTC-2 [4] = test: Xenograft model of anaplastic thyroid tumor; format: in vivo, SCID female mice; conditions: KTC-2 subcutaneous xenograft, GC-1 0.3 mg/Kg, Buparlisib 5 mg/Kg, approximately 6 week study
# Procedure: Doses of Buparlisib tested in xenograft studies range from 5 mg/Kg to 20 mg/Kg.
# Drugs were prepared at concentrations suitable for intraperitoneal (i.p.) injection of 5 μL/g body weight. […] Drug stocks were prepared by dissolving sobetirome and Sob-AM2 at 1 mg/mL in dimethyl sulfoxide (DMSO). […] Vehicles were prepared with 20% DMSO in saline.”
# Buparlisib was used as a 5 mg/kg buparlisib treatment (recommended by Novartis). Buparlisib suspension was prepared in 0.5% methyl cellulose and 0.5% Tween20.
# Tumors were established by subcutaneous injection of 5×10^6 tumor cells in 100 μL of phosphate-buffered saline into the flank region into SCID female mice. Thyroid cancer occurs in females ˜4× more often than in males. As funding is available; both males and females will be tested.
# The study was approximately a 6 week study. Tumor mass was measured, and tumors and tissues were saved for IHC and RNAseq.
# [5] = tested on: SW1736, 8505C, OCUT2, and KTC-2 cells; test: Cell migration by scratch (wound healing) assay, inhibitors with or without GC-1; format: cell-based, human
# Procedure: Migration Assay. Cell migration was determined by wound healing assay. Cells were plated and allowed to grow to 100% confluency. Four hours prior to scratching, cells were treated with […] Mitomycin C. A scratch was performed with a P1000 pipette tip and debris was washed away with PBS. […] Images were obtained at 0, 16, 24, 48, and 72 hours or until 100% wound closure, depending on the cell type. The wound closure was measured using the ImageJ macro “Wound Healing Tool” (https://github.com/MontpellierRessourcesImagerie/imagej_macros_and_scripts/wiki/Wound-Healing-Tool). Percent closure was calculated relative to the area of the initial scratch.
# [6] = tested on: MDA-MB-468 cells (EV, TRβ); test: Mammosphere growth, triple negative breast cancer cells; format: cell-based
# From the text: Data are mean+/−SD; * indicates p<0.05 determined by t-test.
# [7] = tested on: SW1736 cells (SW-EV, SW-TRβ); test: LY294002 inhibition of ATC cell growth; format: cell-based; conditions: Homo sapiens
# NthyOri = test: LY294002 growth of normal-like thyroid cells; format: cell-based; conditions: normal-like thyroid cells NthyOri in which TRβ is expressed
# [8] = tested on: SW1736 cells (SW-EV, SW-TRβ); test: LY294002 inhibition of ATC cell migration; format: cell-based, human; conditions: presence of liganded TRβ (SW-TRβ vs SW-EV)
# Procedure: Migration Assay. Cell migration was determined by wound healing assay. Cells were plated and allowed to grow to 100% confluency. Two hours prior to scratching, cells were treated with […] Mitomycin C. A scratch was performed with a P1000 pipette tip and debris was washed away with PBS. Migration media was supplemented with 10^−8 M T3. Images were obtained at 0, 24, 48, and 72 hours. Wound closure was measured using ImageJ macro “Wound Healing Tool” (http://dev.mri.cnrs.fr/projects/imagej-macros/wiki/Wound_Healing_Tool). Values were normalized so that the initial scratch was 0% closure.
# TRβ also enhances PI3K inhibitor LY294002 inhibition of ATC cell growth and cell migration. […] LY294002 induces a 50% reduction in growth of normal-like thyroid cells NthyOri in which TRβ is expressed. […] Liganded TRβ suppresses ATC cell growth and migration as a tumor suppressor and critically enhances the effectiveness of a potential therapeutic agent.
# PI3K = PI3K activity by pAkt and p mTOR immunoblot; format: cell-based, human; conditions: SW-TRβ vs SW-EV, LY294002 24 hr, T3 10^−8 M
# Procedure: (§3) Immunoblot Analysis. Proteins were isolated from whole cells in lysis buffer (20 mM Tris-HCl [pH 8], 137 mM NaCl, 10% glycerol, 1% Triton X-100, and 2 mM EDTA) containing Protease Inhibitor Cocktail 78410 (Thermo Scientific). Proteins were resolved by polyacrylamide gel electrophoresis on 10% sodium dodecyl sulfate gels EC60752 (Life Technologies) and immobilized onto nitrocellulose membranes (GE Healthcare) by electroblot (Bio-Rad Laboratories). Specific proteins were detected by immunoblotting with the indicated antibodies (Table 4); immunoreactive proteins were detected by enhanced chemiluminescence (Thermo Scientific) on a ChemiDoc XRS+ (Bio-Rad Laboratories).
# MCF7 = test: Mammosphere growth, Luminal A breast cancer cells; format: cell-based
# [9] = tested on: SW1736, 8505C, OCUT2, and KTC-2 cells; test: Thyrosphere outgrowth, unmodified ATC cell lines; format: cell-based, human; conditions: inhibitor three days before plating, or 10 nM GC-1 for 7 days
# Procedure: (§4) Tumorsphere Assay. Cancer stem cell tumorspheres formed from ATC cells (thyrospheres) were used to assess self-renewal and sphere-forming efficiency. For generating thyrospheres, adherent monolayer cells were dissociated with Trypsin-EDTA, and single cells were moved to round-bottom ultra-low attachment 24-well plates at a density of 1000 cells/well (Corning). […] Where indicated, adherent cells were treated with 0.5 μM Buparlisib, 0.5 μM Alpelisib, 1 nM Palbociclib, 5 μM Sorafenib, or vehicle for 72 hours prior to thyrosphere-forming assay. […] Thyrospheres grew for seven days and were then counted with an inverted microscope.
# [10] = tested on: SW1736 cells (SW-EV, SW-TRβ); conditions: SW-TRβ1, GC-1 10^−8M
# Procedure: as §4
# [11] = tested on: SW1736 cells (SW-EV, SW-TRβ); format: cell-based, human; conditions: for ATC cell death: GC-1 10^−8 M; for reduction in cell growth (AUC of growth curve): GC-1 10^−8M, 4 days
# [12] = tested on: MDA-MB-468 cells (EV, TRβ); conditions: triple negative breast cancer cells with low TRβ expression
# Procedure: Triple negative breast cancer were examined next. […] TNBC cancers and other advanced solid tumors have lower endogenous levels of expression of TRβ. […] Cell migration was measured by scratch assay (FIG. 28). […] Data are mean+/−SD; *indicates p<0.05 determined by t-test.
# [13] = tested on: SW1736 cells (SW-EV, SW-TRβ); test: Apoptosis assay (PARP1 and caspase 3 cleavage, immunoblot); format: cell-based, human; conditions: SW-TRβ
# From the text: as §3, with “Proteins were isolated from whole cells in lysis buffer (20 mM Tris-HCl [pH 8], 137 mM NaCl, 10% glycerol, 1% Triton X-100, and 2 mM EDTA) containing Protease Inhibitor Cocktail 78410 (Thermo Scientific).” left out
# Apoptosis Assay. Cells were plated at a density of 50,000 cells/well and treated with vehicle (1 N NaOH) or 10^−8 M T3. After 5 days the cells were lysed for analysis by immunoblot. Poly (ADP-ribose) polymerase 1 (PARP1) and Caspase 3 cleavage were assessed to measure apoptotic signaling.
# Immunoblot Analysis. […] Proteins were resolved by polyacrylamide gel electrophoresis on 10% sodium dodecyl sulfate gels EC60752 (Thermo Fisher Scientific) and immobilized onto nitrocellulose membranes (GE Healthcare, Chicago, Ill., USA) by electroblot (Bio-Rad Laboratories, Hercules, Calif., USA). Specific proteins were detected by immunoblotting with the indicated antibodies (Table 4); immunoreactive proteins were detected by enhanced chemiluminescence (Thermo Scientific) on a ChemiDoc XRS+ (Bio-Rad Laboratories).
# [14] = tested on: SW1736, 8505C, OCUT2, and KTC-2 cells; conditions: GC-1 concentrations higher than 10^-8M
compound,measurement,setting,value
"Oc1ccccc1-c1ccc2cccnc2n1 [2-NP, 2-(1,8-naphthyridin-2-yl)phenol]",reduction in cell growth,OCUT-2,recapitulates the effect of T3-TRβ
same,reduction in cell growth,KTC-2 [1],recapitulates the effect of T3-TRβ
same,reduction in cell growth,SW1736,recapitulates the effect of T3-TRβ; also recorded: most responsive
"CC(=O)c1c(C)c2cnc(Nc3ccc(N4CCNCC4)cn3)nc2n(C2CCCC2)c1=O [Palbociclib, 6-acetyl-8-cyclopentyl-5-methyl-2-[(5-piperazin-1-ylpyridin-2-yl)amino]pyrido[6,5-d]pyrimidin-7-one]","cell growth, combination with GC-1",[2],synergistic effect to reduce cell growth
"Nc1cc(C(F)(F)F)c(-c2cc(N3CCOCC3)nc(N3CCOCC3)n2)cn1 [Buparlisib, 5-(2,6-dimorpholin-4-ylpyrimidin-4-yl)-4-(trifluoromethyl)pyridin-2-amine]",toxicity to cells,[3]; 10 μM,toxic
same,cell viability,"[3]; SW-EV, buparlisib alone 0-10 μM",concentration dependent decrease in cell viability
same,sensitivity of cell growth to buparlisib,[3]; SW-TRβ plus GC-1 10^−8M,increase the sensitivity to buparlisib at 0.1 and 1 μM
same,"EC50, cell viability",[3]; SW-TRβ vs SW-EV,significantly reduced EC50
same,metastases,KTC-2 [4],detectable metastases to the heart
same,tumor growth,KTC-2 [4],smaller non-nodular growth
same,"cell growth, combination with GC-1",[2],synergistic effect to reduce cell growth
same,"wound closure, inhibitor combined with GC-1","[5]; KTC-2 cells, GC-1 10^−8M plus 0.5 μM Buparlisib",exception
same,"mammosphere growth, Buparlisib in the presence of GC-1","[6]; 10 nM GC-1, 5 days",increases the efficacy of Buparlisib to reduced mammosphere growth
same,reduction of effective Buparlisib in the presence of GC-1,[6]; mammospheres from MDA-MB-468-TRβ cells,50%
"O=c1cc(N2CCOCC2)oc2c(-c3ccccc3)cccc12 [LY294002, 2-(morpholin-4-yl)-8-phenyl-4H-chromen-4-one]",EC50,"[7]; SW-1736, SW-EV (no TRβ re-expression), T3",5.21 µM
same,EC50,"[7]; SW-1736, SW-EV, unit inferred",5.21 µM
same,EC50,"[7]; SW-1736, SW-TRβ, liganded (T3)",1.13 µM
same,EC50,"[7]; SW-1736, SW-TRβ, liganded (T3), unit inferred",1.13 µM
same,reduction in growth,NthyOri,50%
same,inhibition of ATC cell migration,[8],enhances LY294002 inhibition of ATC cell migration
same,pAkt vs total Akt and p mTOR vs total mTOR,PI3K,decreased pAkt compared with total Akt and decreased p mTOR compared with total mTOR
CC/C(=C(\c1ccccc1)c1ccc(OCCN(C)C)cc1)c1ccccc1 [tamoxifen],effect of inhibitor in the presence of GC-1,"MCF7; MCF7, 10 nM GC-1, 5 days",enhanced the effect
"CNC(=O)c1cc(Oc2ccc(NC(=O)Nc3ccc(Cl)c(C(F)(F)F)c3)cc2)ccn1 [Sorafenib, 4-[4-[[4-chloro-3-(trifluoromethyl)phenyl]carbamoylamino]phenoxy]-N-methylpyridine-2-carboxamide]","thyrosphere formation/outgrowth, agent alone",[9],most effective overall
"Cc1cc(OCC(=O)O)cc(C)c1Cc1ccc(O)c(C(C)C)c1 [GC-1, 2-[4-[(4-hydroxy-3-propan-2-ylphenyl)methyl]-3,5-dimethylphenoxy]acetic acid]",reduction in thyrosphere formation,[10],greater than 80%
same,mammosphere formation,"MCF7; MCF7, 10 nM GC-1 alone",could reduce mammosphere formation
same,ATC cell death,[11]; SW1736 with endogenous TRβ (EV),induces ATC cell death
same,reduction in cell growth (AUC of growth curve),[11]; SW-EV,50%
same,ATC cell death,[11]; SW-TRβ (lentiviral transduction),amplified with higher levels of TRβ
same,reduction in cell growth (AUC of growth curve),[11]; SW-TRβ,75%
same,metastases,KTC-2 [4],no visually detectable metastases
same,tumor vascularization,KTC-2 [4],minimal vascularization
same,cell migration,[12],able to slow migration
same,"wound closure, agent alone",[5]; GC-1 10^−8M or inhibitor alone,able to prevent wound closure of all tumor cell lines with similar success as each inhibitor alone
same,cleaved PARP and cleaved caspase 3,"[13]; GC-1, 5 days",significantly increased the presence of cleaved PARP and cleaved caspase 3
same,apoptosis (cleaved PARP and caspase),[13]; five days,induces apoptosis
same,cell toxicity,[14],cause cell toxicity
